pKd: −log10 of the molar value.
How the values were obtained:
[1] = stability of the isolated material on storage; assay type: physicochemical
wild type AR = conditions: read-out: Kd for [^3H]-DHT; MDA 453 cells (wild type AR), saturation analysis, Scatchard
Method: For the saturation analysis, the difference between the total binding and the non-specific binding, is defined as specific binding.
Two replicates are used for each sample. After 4 hours at 37° C., cells are washed, harvested, and counted as described above. […] The K1 values are determined by application of the Cheng-Prusoff equation to the IC50 values, where:
[formula] After correcting for non-specific binding, IC50 values are determined. […] Murine Breast Cell Proliferation Assay

AR = target: T1, AR (Rattus norvegicus, UniProt P15207)
T1 sequence (P15207 1-902): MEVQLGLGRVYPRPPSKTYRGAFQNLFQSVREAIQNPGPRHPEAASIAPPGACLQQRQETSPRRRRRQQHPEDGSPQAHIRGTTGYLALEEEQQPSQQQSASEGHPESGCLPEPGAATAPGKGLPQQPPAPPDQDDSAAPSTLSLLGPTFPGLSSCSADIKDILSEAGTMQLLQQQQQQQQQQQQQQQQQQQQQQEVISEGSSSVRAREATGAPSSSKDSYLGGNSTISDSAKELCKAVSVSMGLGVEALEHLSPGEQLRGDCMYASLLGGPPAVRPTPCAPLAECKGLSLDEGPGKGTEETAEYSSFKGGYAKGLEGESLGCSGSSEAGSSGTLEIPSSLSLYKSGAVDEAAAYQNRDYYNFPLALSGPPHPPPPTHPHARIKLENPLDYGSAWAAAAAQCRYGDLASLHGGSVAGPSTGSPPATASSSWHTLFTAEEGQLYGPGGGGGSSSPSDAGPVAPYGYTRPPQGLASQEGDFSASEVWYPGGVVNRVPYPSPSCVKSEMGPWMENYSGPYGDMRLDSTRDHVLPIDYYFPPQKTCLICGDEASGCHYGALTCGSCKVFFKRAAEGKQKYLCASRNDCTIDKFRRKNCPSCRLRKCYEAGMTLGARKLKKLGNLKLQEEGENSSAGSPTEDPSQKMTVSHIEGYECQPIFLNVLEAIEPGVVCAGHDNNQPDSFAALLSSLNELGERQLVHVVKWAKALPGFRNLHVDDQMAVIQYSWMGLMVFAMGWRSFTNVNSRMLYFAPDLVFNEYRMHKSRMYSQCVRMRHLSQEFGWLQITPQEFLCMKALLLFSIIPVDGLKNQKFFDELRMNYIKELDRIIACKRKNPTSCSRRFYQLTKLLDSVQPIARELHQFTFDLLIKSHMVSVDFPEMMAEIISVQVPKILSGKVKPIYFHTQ

[2] = serum T and DHT concentrations after subcutaneous injection; conditions: over 24 hours

N#Cc1ccc(N2C[C@H]3[C@H]4CC[C@H](C4)[C@@]3(CN=[N+]=[N-])S2(=O)=O)cc1C(F)(F)F [Example 65, 4-((1R,2R,6R,7S)-2-(azidomethyl)-3,3-dioxido-3-thia-4-azatricyclo[5.2.1.0^2,6]dec-4-yl)-2-(trifluoromethyl)benzonitrile]
stability ([1]; ambient conditions): prone to decomposition under ambient conditions

tritiated dihydrotestosterone [[^3H]-DHT]
pKd (wild type AR): 9.15

CCC(=O)O[C@H]1CC[C@H]2[C@@H]3CCC4=CC(=O)CC[C@]4(C)[C@H]3CC[C@]12C [TP, testosterone propionate]
potency relative to free T (AR; higher potency than free T): 10-30 fold
ED80 (AR; immature castrated rat model, weights of VP and SV): 0.1 mg
EC50 (increase in organ weight, VP and SV) (AR; immature castrated rats, dosing for 3 days): ~0.03 mg

N#Cc1ccc(N2C[C@H]3[C@H]4CC[C@H](C4)[C@@]3(COS(=O)(=O)C(F)(F)F)S2(=O)=O)cc1C(F)(F)F [Example 61, ((1R,2R,6R,7S)-4-(4-cyano-3-(trifluoromethyl)phenyl)-3,3-dioxido-3-thia-4-azatricyclo[5.2.1.0^2,6]dec-2-yl)methyl trifluoromethanesulfonate]
stability ([1]; under an inert atmosphere, unpurified material): stable for several weeks under an inert atmosphere

C[C@]12CC[C@H]3[C@@H](CCC4=CC(=O)CC[C@@]43C)[C@@H]1CC[C@@H]2O [T, testosterone]
course of serum concentrations of T and DHT [2]: decline very rapidly
